Test results taken from patent US20210127673A1, “HERBICIDES” (SYNGENTA PARTICIPATIONS AG, priority 2016, published 2021).

How the values were obtained:
Assay type in all cases: in vivo
Conditions in all cases: evaluated after 13 days
Avena fatua (AVEFA) [1] = assay: Pre-emergence herbicidal activity, Avena fatua; design: key: 5=total damage to plant; 0=no damage to plant
Description: (§1) Seeds of a variety of test species were sown in standard soil in pots: Triticum aestivium (TRZAW), Avena fatua (AVEFA), Alopecurus myosuroides (ALOMY), Echinochloa crus-galli (ECHCG), Lolium perenne (LOLPE), Zea Mays (ZEAMX), Abutilon theophrasti (ABUTH), Amaranthus retroflexus (AMARE) and Setaria faberi (SETFA). After cultivation for one day (pre-emergence) under controlled conditions in a glasshouse (at 24/16° C., day/night; 14 hours light; 65% humidity), the plants were sprayed with an aqueous spray solution derived from the formulation of the technical active ingredient in acetone/water (50:50) solution containing 0.5% Tween 20 (polyoxyethelyene sorbitan monolaurate, CAS RN 9005-64-5). The test plants were then grown in a glasshouse under controlled conditions (at 24/16°, day/night; 14 hours light; 65% humidity) and watered twice daily. After 13 days, the test was evaluated (5=total damage to plant; 0=no damage to plant).

Setaria faberi (SETFA) [2] = assay: Post-emergence herbicidal activity, Setaria faberi; design: key: 5=total damage to plant; 0=no damage to plant
Description: (§2) Seeds of a variety of test species were sown in standard soil in pots: Triticum aestivium (TRZAW), Avena fatua (AVEFA), Alopecurus myosuroides (ALOMY), Echinochloa crus-galli (ECHCG), Lolium perenne (LOLPE), Zea Mays (ZEAMX), Abutilon theophrasti (ABUTH), Amaranthus retroflexus (AMARE) and Setaria faberi (SETFA). After 8 days cultivation (post-emergence) under controlled conditions in a glasshouse (at 24/16° C., day/night; 14 hours light; 65% humidity), the plants were sprayed with an aqueous spray solution derived from the formulation of the technical active ingredient in acetone/water (50:50) solution containing 0.5% Tween 20 (polyoxyethelyene sorbitan monolaurate, CAS RN 9005-64-5). The test plants were then grown in a glasshouse under controlled conditions (at 24/16° C., day/night; 14 hours light; 65% humidity) and watered twice daily. After 13 days, the test was evaluated (5=total damage to plant; 0=no damage to plant).

[3] = tested on: Triticum aestivium (TRZAW); assay: Post-emergence herbicidal activity, Triticum aestivium; design: key: 5=total damage to plant; 0=no damage to plant
Description: as §2

[4] = tested on: Alopecurus myosuroides (ALOMY); assay: Pre-emergence herbicidal activity, Alopecurus myosuroides; design: key: 5=total damage to plant; 0=no damage to plant
Description: as §1

Setaria faberi (SETFA) [5] = assay: Pre-emergence herbicidal activity, Setaria faberi; design: key: 5=total damage to plant; 0=no damage to plant
Description: as §1

[6] = tested on: Alopecurus myosuroides (ALOMY); assay: Post-emergence herbicidal activity, Alopecurus myosuroides; design: key: 5=total damage to plant; 0=no damage to plant
Description: as §2

Lolium perenne (LOLPE) [7] = assay: Pre-emergence herbicidal activity, Lolium perenne; design: key: 5=total damage to plant; 0=no damage to plant
Description: as §1

Lolium perenne (LOLPE) [8] = assay: Post-emergence herbicidal activity, Lolium perenne
Description: as §2

Avena fatua (AVEFA) [9] = assay: Post-emergence herbicidal activity, Avena fatua
Description: as §2

[10] = tested on: Echinochloa crus-galli (ECHCG); assay: Pre-emergence herbicidal activity, Echinochloa crus-galli; design: key: 5=total damage to plant; 0=no damage to plant
Description: as §1

[11] = tested on: Triticum aestivium (TRZAW); assay: Pre-emergence herbicidal activity, Triticum aestivium; design: key: 5=total damage to plant; 0=no damage to plant
Description: as §1

[12] = tested on: Echinochloa crus-galli (ECHCG); assay: Post-emergence herbicidal activity, Echinochloa crus-galli; design: key: 5=total damage to plant; 0=no damage to plant
Description: as §2

Row | Structure (SMILES) | Control of AVEFA after pre-emergence application (score 0-5) (Avena fatua (AVEFA) [1]; 1000 g/ha) | Control of SETFA after post-emergence application (score 0-5) (Setaria faberi (SETFA) [2]; 1000 g/ha) | Control of TRAZW after post-emergence application (score 0-5) ([3]; 1000 g/ha) | Control of ALOMY after pre-emergence application (score 0-5) ([4]; 1000 g/ha) | Control of SETFA after pre-emergence application (score 0-5) (Setaria faberi (SETFA) [5]; 1000 g/ha) | Control of ALOMY after post-emergence application (score 0-5) ([6]; 1000 g/ha) | Control of LOLPE after pre-emergence application (score 0-5) (Lolium perenne (LOLPE) [7]; 1000 g/ha) | Control of LOLPE after post-emergence application (score 0-5) (Lolium perenne (LOLPE) [8]; 1000 g/ha) | Control of AVEFA after post-emergence application (score 0-5) (Avena fatua (AVEFA) [9]; 1000 g/ha) | Control of ECHCG after pre-emergence application (score 0-5) ([10]; 1000 g/ha) | Control of TRAZW after pre-emergence application (score 0-5) ([11]; 1000 g/ha) | Control of ECHCG after post-emergence application (score 0-5) ([12]; 1000 g/ha) | also measured
1 | CSCCCOC(=O)Nc1ccc(-c2cncc(F)c2)nc1C(F)(F)F [Compound B83] | 2 | 5 | 1 | 0 | 5 | 0 | 2 | 3 | 4 | 4 | 0 | 5 | –
2 | CCCCOC(=O)Nc1ccc(-c2cncc(F)c2)nc1C(F)(F)F [Compound B58] | 1 | 5 | 0 | 0 | 2 | 0 | 1 | 2 | 2 | 2 | 0 | 3 | –
3 | O=C(Nc1ccc(-c2cncc(F)c2)nc1C(F)(F)F)N1CCCC1 [Compound B63] | 0 | 3 | 0 | 1 | 2 | 0 | 0 | 2 | 2 | 2 | 0 | 5 | –
4 | NC(=O)Nc1ccc(-c2cncc(F)c2)nc1C(F)(F)F [Compound B47] | 1 | 5 | 0 | 0 | 5 | 0 | 1 | 2 | 3 | 4 | 0 | 4 | –
5 | O=C(Nc1ccc(-c2cncc(F)c2)nc1C(F)(F)F)NN1CCOCC1 [Compound B69] | 1 | 4 | 1 | 0 | 4 | 0 | 1 | 2 | 3 | 2 | 0 | 4 | –
6 | CN1COCN(c2ccc(-c3cncc(F)c3)nc2C(F)(F)F)C1=O [Compound B121, 3-[6-(5-fluoro-3-pyridyl)-2-(trifluoromethyl)-3-pyridyl]-5-methyl-1,3,5-oxadiazinan-4-one] | 0 | 5 | 0 | 0 | 4 | 0 | 0 | 2 | 3 | 2 | 0 | 3 | –
7 | O=C(NOCC(F)F)Nc1ccc(-c2cncc(F)c2)nc1C(F)(F)F [Compound B110] | 0 | 4 | 0 | 0 | 4 | 0 | 0 | 1 | 3 | 3 | 0 | 3 | –
8 | O=C(Nc1ccc(-c2cncc(F)c2)nc1C(F)(F)F)NC1CC1 [Compound B89] | 2 | 5 | 1 | 0 | 5 | 0 | 1 | 2 | 4 | 4 | 0 | 5 | –
9 | COCCNC(=O)Nc1ccc(-c2cncc(F)c2)nc1C(F)(F)F [Compound B60] | 1 | 5 | 1 | 0 | 2 | 1 | 1 | 2 | 2 | 4 | 0 | 5 | –
10 | O=C(NCc1cccnc1)Nc1ccc(-c2cncc(F)c2)nc1C(F)(F)F [Compound B97] | – | – | – | – | – | – | – | – | – | – | – | – | Control of AVEFA after pre-emergence application (score 0-5) (Avena fatua (AVEFA) [1]; 250 g/ha): 0; Control of SETFA after post-emergence application (score 0-5) (Setaria faberi (SETFA) [2]; 250 g/ha): 1; Control of TRAZW after post-emergence application (score 0-5) ([3]; 250 g/ha): 0; Control of ALOMY after pre-emergence application (score 0-5) ([4]; 250 g/ha): 0; Control of SETFA after pre-emergence application (score 0-5) (Setaria faberi (SETFA) [5]; 250 g/ha): 0; Control of ALOMY after post-emergence application (score 0-5) ([6]; 250 g/ha): 0; Control of LOLPE after pre-emergence application (score 0-5) (Lolium perenne (LOLPE) [7]; 250 g/ha): 0; Control of LOLPE after post-emergence application (score 0-5) (Lolium perenne (LOLPE) [8]; 250 g/ha): 1; Control of AVEFA after post-emergence application (score 0-5) (Avena fatua (AVEFA) [9]; 250 g/ha): 2; Control of ECHCG after pre-emergence application (score 0-5) ([10]; 250 g/ha): 0; Control of TRAZW after pre-emergence application (score 0-5) ([11]; 250 g/ha): 0; Control of ECHCG after post-emergence application (score 0-5) ([12]; 250 g/ha): 1
11 | O=C1NCCN1c1ccc(-c2cncc(F)c2)nc1C(F)(F)F [Compound B64] | 0 | 4 | 0 | 0 | 2 | 0 | 0 | 1 | 3 | 1 | 0 | 4 | –
